Measurements as given in patent publication US8450317B2, “CXCR3 receptor antagonists” (Boehringer Ingelheim International GmbH, priority 2009, dated 2013).

Molecular target: CXCR3 (Macaca fascicularis, UniProt A0A2K5UV19)
Test: functional cellular assay measuring calcium flux in CXCR3 transfected cells (block of CXCR3/IP-10 interaction)
Assay type: cell-based, Cyno
Details: IP-10 induced intracellular calcium flux; Cyno-CHO cells stably expressing recombinant CXCR3 and G-alpha-16; IP-10 at EC80; read-out: IC50
Method in brief: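 Inhibition of IP-10-induced calcium flux at 10 microM final compound, 15 min room-temperature preincubation, with IP-10 at EC80. Cells: CHO stably transfected with cynomolgus CXCR3 plus G-alpha-16, dye-loaded (Ca-4, 2 mM probenecid, HBSS/HEPES pH 7.4) 1 h at 37° C.; fluorescence ex 480/em 540 nm.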

Sequence of CXCR3 (A0A2K5UV19 entry or part of it): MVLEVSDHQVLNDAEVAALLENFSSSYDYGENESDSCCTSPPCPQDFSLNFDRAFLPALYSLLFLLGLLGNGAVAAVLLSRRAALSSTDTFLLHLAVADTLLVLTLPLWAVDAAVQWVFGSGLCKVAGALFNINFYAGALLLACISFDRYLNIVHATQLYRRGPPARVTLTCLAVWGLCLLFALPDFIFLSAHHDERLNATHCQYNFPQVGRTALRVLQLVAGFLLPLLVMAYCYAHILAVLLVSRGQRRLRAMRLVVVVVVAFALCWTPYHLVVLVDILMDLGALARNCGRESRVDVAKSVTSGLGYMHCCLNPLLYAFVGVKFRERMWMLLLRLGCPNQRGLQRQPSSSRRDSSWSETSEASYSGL

Row | Compound | IC50 [nM]
1 | CSc1ncc(-c2cc(C(F)(F)F)ccc2N2CCN(C(=O)Cn3ccc4cccnc43)CC2)cn1 [1-{4-[2-(2-Methylsulfanyl-pyrimidin-5-yl)-4-trifluoromethyl-phenyl]-piperazin-1-yl}-2-pyrrolo[2,3-b]pyridin-1-yl-ethanone] | 9
2 | COc1ccc(-c2ccccc2N2CCN(C(=O)Cn3ccc4cccnc43)CC2)cn1 [1-{4-[2-(6-Methoxy-pyridin-3-yl)-phenyl]-piperazin-1-yl}-2-pyrrolo[2,3-b]pyridin-1-yl-ethanone] | 34
3 | COc1ncc(-c2cc(F)ccc2N2CCN(C(=O)Cn3cnc4cccnc43)CC2)cn1 [1-{4-[4-fluoro-2-(2-methoxypyrimidin-5-yl)phenyl]piperazin-1-yl}-2-(3H-imidazo[4,5-b]pyridin-3-yl)ethanone] | 53
4 | CSc1ncc(-c2cc(Cl)ccc2N2CCN(C(=O)Cn3ccc4cccnc43)CC2)cn1 [1-{4-[4-Chloro-2-(2-methylsulfanyl-pyrimidin-5-yl)-phenyl]-piperazin-1-yl}-2-pyrrolo[2,3-b]pyridin-1-yl-ethanone] | 8
5 | Cc1cc(C)n(CC(=O)N2CCN(c3ccccc3-c3cnc(N4CC(F)(F)C4)nc3)CC2)n1 [1-(4-{2-[2-(3,3-Difluoro-azetidin-1-yl)-pyrimidin-5-yl]-phenyl}-piperazin-1-yl)-2-(3,5-dimethyl-pyrazol-1-yl)-ethanone] | 7
6 | CNc1ncc(-c2ccccc2N2CCN(C(=O)Cn3nc(C)cc3C)CC2)cn1 [2-(3,5-Dimethyl-pyrazol-1-yl)-1-{4-[2-(2-methylamino-pyrimidin-5-yl)-phenyl]-piperazin-1-yl}-ethanone] | 34
7 | CS(=O)(=O)c1ncc(-c2cc(F)ccc2N2CCN(C(=O)Cn3c(=O)[nH]c4ccccc43)CC2)cn1 [1-[2-(4-{4-fluoro-2-[2-(methylsulfonyl)pyrimidin-5-yl]phenyl}piperazin-1-yl)-2-oxoethyl]-1,3-dihydro-2H-benzimidazol-2-one] | 47
8 | CN1CCN(c2ncc(-c3cc(F)ccc3N3CCN(C(=O)Cn4cnc5cccnc54)CC3)cn2)CC1 [1-(4-{4-fluoro-2-[2-(4-methylpiperazin-1-yl)pyrimidin-5-yl]phenyl}piperazin-1-yl)-2-(3H-imidazo[4,5-b]pyridin-3-yl)ethanone] | 43
9 | CN(C)c1ncc(-c2ccccc2N2CCN(C(=O)Cn3ccc4cccnc43)CC2)cn1 [1-{4-[2-(2-Dimethylamino-pyrimidin-5-yl)-phenyl]-piperazin-1-yl}-2-pyrrolo[2,3-b]pyridin-1-yl-ethanone] | 6
10 | O=C(Cn1ccc2cccnc21)N1CCN(c2c(F)cccc2-c2cnc(N3CCOCC3)nc2)CC1 [1-{4-[2-Fluoro-6-(2-morpholin-4-yl-pyrimidin-5-yl)-phenyl]-piperazin-1-yl}-2-pyrrolo[2,3-b]pyridin-1-yl-ethanone] | 27
11 | O=C(Cn1c(=O)[nH]c2ccccc21)N1CCN(c2ccccc2-c2cnc(N3CCOCC3)nc2)CC1 [1-(2-{4-[2-(2-Morpholin-4-yl-pyrimidin-5-yl)-phenyl]-piperazin-1-yl}-2-oxo-ethyl)-1,3-dihydro-benzoimidazol-2-one] | 10
12 | CC1CN(c2ccccc2-c2cnc(N3CCC(O)CC3)nc2)CCN1C(=O)CN1CCCCC1=O (stereo not drawn) [1-[2-(4-{2-[2-(4-hydroxypiperidin-1-yl)pyrimidin-5-yl]phenyl}-2-methylpiperazin-1-yl)-2-oxoethyl]piperidin-2-one] | 19
13 | Cc1cc(C)n(CC(=O)N2CCN(c3ccccc3-c3cnc(Oc4ccccc4)nc3)CC2)n1 [2-(3,5-Dimethyl-pyrazol-1-yl)-1-{4-[2-(2-phenoxy-pyrimidin-5-yl)-phenyl]-piperazin-1-yl}-ethanone] | 39
14 | COc1ncc(-c2cc(F)ccc2N2CCN(C(=O)Cn3c(=O)[nH]c4ccccc43)CC2)cn1 [1-(2-{4-[4-fluoro-2-(2-methoxypyrimidin-5-yl)phenyl]piperazin-1-yl}-2-oxoethyl)-1,3-dihydro-2H-benzimidazol-2-one] | 13
15 | Cc1cc(C)n(CC(=O)N2CCN(c3ccccc3-c3cnc(N4CC(C)OC(C)C4)nc3)CC2)n1 (stereo not drawn) [1-(4-{2-[2-(2,6-Dimethyl-morpholin-4-yl)-pyrimidin-5-yl]-phenyl}-piperazin-1-yl)-2-(3,5-dimethyl-pyrazol-1-yl)-ethanone] | 6
16 | O=C(Cn1ccc2cccnc21)N1CCN(c2ccc(F)cc2-c2cnc(N3CCOCC3)nc2)CC1 [1-(4-{4-fluoro-2-[2-(morpholin-4-yl)pyrimidin-5-yl]phenyl}piperazin-1-yl)-2-(1H-pyrrolo[2,3-b]pyridin-1-yl)ethanone] | 14
17 | O=C(CN1CCCCC1=O)N1CCN(c2ccc(F)cc2-c2cnc(N3CCCC3)nc2)CC1 [1-[2-(4-{4-fluoro-2-[2-(pyrrolidin-1-yl)pyrimidin-5-yl]phenyl}piperazin-1-yl)-2-oxoethyl]piperidin-2-one] | 23
18 | COc1cc(-c2ccccc2N2CCN(C(=O)Cn3ccc4cccnc43)CC2)ccn1 [1-{4-[2-(2-Methoxy-pyridin-4-yl)-phenyl]-piperazin-1-yl}-2-pyrrolo[2,3-b]pyridin-1-yl-ethanone] | 24
19 | O=C(Cn1ccc2ccncc21)N1CCN(c2ccc(F)cc2-c2cnc(N3CCCC3)nc2)CC1 [1-(4-{4-fluoro-2-[2-(pyrrolidin-1-yl)pyrimidin-5-yl]phenyl}piperazin-1-yl)-2-(1H-pyrrolo[2,3-c]pyridin-1-yl)ethanone] | 14

Now from value to compound:

Row | IC50 [nM] | Compound
20 | 12 | COc1cc(NC(=O)c2cc(F)ccc2N2CCN(C(=O)CN(C)C(=O)c3ncoc3C)[C@H](C)C2)ccn1 [N-{2-[(2R)-4-{4-fluoro-2-[(2-methoxypyridin-4-yl)carbamoyl]phenyl}-2-methylpiperazin-1-yl]-2-oxoethyl}-N,5-dimethyl-1,3-oxazole-4-carboxamide]
21 | 40 | Cc1cc(C)n(CC(=O)N2CCN(c3ccc(F)cc3-c3cnc(N4CCN(C)CC4)nc3)CC2)n1 [2-(3,5-dimethyl-1H-pyrazol-1-yl)-1-(4-{4-fluoro-2-[2-(4-methylpiperazin-1-yl)pyrimidin-5-yl]phenyl}piperazin-1-yl)ethanone]
22 | 23 | O=C(CN1Cc2ccccc2C1=O)N1CCN(c2ccc(F)cc2-c2cnc(N3CCOCC3)nc2)CC1 [2-[2-(4-{4-fluoro-2-[2-(morpholin-4-yl)pyrimidin-5-yl]phenyl}piperazin-1-yl)-2-oxoethyl]-2,3-dihydro-1H-isoindol-1-one]
23 | 101 | CC1CN(c2ccc(C(F)(F)F)cc2-c2cnc(S(C)(=O)=O)nc2)CCN1C(=O)CN1Cc2ccccc2C1=O (stereo not drawn) [2-[2-(2-methyl-4-{2-[2-(methylsulfonyl)pyrimidin-5-yl]-4-(trifluoromethyl)phenyl}piperazin-1-yl)-2-oxoethyl]-2,3-dihydro-1H-isoindol-1-one]
24 | 8 | N#Cc1ccc(N2CCN(C(=O)Cn3ccc4cccnc43)CC2)c(-c2cnc(N3CCOCC3)nc2)c1 [3-(2-Morpholin-4-yl-pyrimidin-5-yl)-4-[4-(2-pyrrolo[2,3-b]pyridin-1-yl-acetyl)-piperazin-1-yl]-benzonitrile]
25 | 15 | Cc1cc(C)n(CC(=O)N2CCN(c3ccc(F)cc3C(=O)Nc3nc4c(s3)CN(C)CC4)C[C@H]2C)n1 [2-{(3R)-4-[(3,5-dimethyl-1H-pyrazol-1-yl)acetyl]-3-methylpiperazin-1-yl}-5-fluoro-N-(5-methyl-4,5,6,7-tetrahydro[1,3]thiazolo[5,4-c]pyridin-2-yl)benzamide]
26 | 8 | COc1cc(NC(=O)c2cc(F)ccc2N2CCN(C(=O)CN3CCCCC3=O)[C@@H](C)C2)ccn1 [5-fluoro-N-(2-methoxypyridin-4-yl)-2-{(3S)-3-methyl-4-[(2-oxopiperidin-1-yl)acetyl]piperazin-1-yl}benzamide]
27 | 12 | COc1cc(NC(=O)c2cc(F)ccc2N2CCN(C(=O)Cn3nc(C)cc3C)[C@@H](C)C2)ccn1 [2-{(3S)-4-[(3,5-dimethyl-1H-pyrazol-1-yl)acetyl]-3-methylpiperazin-1-yl}-5-fluoro-N-(2-methoxypyridin-4-yl)benzamide]
28 | 71 | Cc1cc(C(F)(F)F)nn1CC(=O)N1CCN(c2ccccc2-c2ccc(C#N)nc2)CC1 [5-(2-{4-[2-(5-Methyl-3-trifluoromethyl-pyrazol-1-yl)-acetyl]-piperazin-1-yl}-phenyl)-pyridine-2-carbonitrile]
29 | 8 | Cc1cc(C)n(CC(=O)N2CCN(c3ccc(C(F)(F)F)cc3-c3cnc(N4CCC(O)CC4)nc3)CC2C)n1 (stereo not drawn) [2-(3,5-dimethyl-1H-pyrazol-1-yl)-1-(4-{2-[2-(4-hydroxypiperidin-1-yl)pyrimidin-5-yl]-4-(trifluoromethyl)phenyl}-2-methylpiperazin-1-yl)ethanone]
30 | 9 | COc1cc(NC(=O)c2cc(F)ccc2N2CCN(C(=O)CN(C)C(=O)C(C)C)[C@H](C)C2)ccn1 [5-fluoro-N-(2-methoxypyridin-4-yl)-2-{(3R)-3-methyl-4-[N-methyl-N-(2-methylpropanoyl)glycyl]piperazin-1-yl}benzamide]
31 | 11 | COc1cc(NC(=O)c2cc(F)ccc2N2CCN(C(=O)Cn3cnc4cccnc43)[C@@H](C)C2)ccn1 [5-fluoro-2-[(3S)-4-(3H-imidazo[4,5-b]pyridin-3-ylacetyl)-3-methylpiperazin-1-yl]-N-(2-methoxypyridin-4-yl)benzamide]
32 | 15 | C[C@@H]1CN(c2ccc(F)cc2C(=O)Nc2nc3c(s2)CN(C)CC3)CCN1C(=O)Cn1cnc2cccnc21 [5-fluoro-2-[(3R)-4-(3H-imidazo[4,5-b]pyridin-3-ylacetyl)-3-methylpiperazin-1-yl]-N-(5-methyl-4,5,6,7-tetrahydro[1,3]thiazolo[5,4-c]pyridin-2-yl)benzamide]
33 | 9 | COc1cc(NC(=O)c2cc(F)ccc2N2CCN(C(=O)Cn3ccc4ccncc43)[C@H](C)C2)ccn1 [5-fluoro-N-(2-methoxypyridin-4-yl)-2-[(3R)-3-methyl-4-(1H-pyrrolo[2,3-c]pyridin-1-ylacetyl)piperazin-1-yl]benzamide]
